Earlier results as cited in patent US20100003224A1, “Combination Therapy” (GENZYME CORPORATION, priority 2006, published 2010).

What was measured:
[1] = system: multiple sclerosis; conditions: in vivo
[2] = system: progenitor cells; conditions: single agent
[3] = system: pre-B-ALL cells; conditions: in vitro
[4] = system: collagen-induced arthritis; conditions: mice
[5] = system: white blood cell counts; conditions: WO 00/45814
[6] = system: pre-B-ALL cells; conditions: in vitro; remark: listed apart in the source

Row | Compound | efficacy in the treatment of multiple sclerosis [1] | mobilization of progenitor cells [2] | SDF-1 induced chemotaxis of pre-B-ALL cells into bone marrow stroma layers [3] | effects in collagen-induced arthritis models [4] | white blood cell counts [5] | cytotoxic and antiproliferative effects of vincristine and dexamethasone [6]
1 | natalizumab: humanized monoclonal antibody against α4 (anti-VLA-4 antibody) | demonstrated efficacy |  |  |  |  | 
2 | c1cc(CN2CCCNCCNCCCNCC2)ccc1CN1CCCNCCNCCCNCC1 [AMD3100, 1,1′-[1,4-phenylene-bis(methylene)]-bis-1,4,8,11-tetraazacyclotetradecane] |  | mobilizes progenitor cells | blocked | protective effects | elevate white blood cell counts | enhanced
